# Test results from ChEMBL document CHEMBL2331442, “Synthesis and structure-activity relationships of N-methyl-5,6,7-trimethoxylindoles as novel antimitotic and vascular disrupting agents” (J Med Chem, 2013).
# The source made the active and inactive calls. No cut-off for these calls is given here.
# System: A549
# Experiment: Antiangiogenic activity in human A549 cells xenografted in BALB/c nu/nu mouse assessed as disruption of tumor vasculature at 100 mg/kg, ip after 16 hrs by Hoechst 33342 staining-based Zeiss microscopic analysis relative to control
# Assay type: functional
# Settings: route intraperitoneal
row,SMILES,Activity [%]
1,COc1ccc(C(=O)c2cn(C)c3c(OC)c(OC)c(OC)cc23)cc1O,68
2,COc1ccc(/C=C\c2cc(OC)c(OC)c(OC)c2)cc1O [COMBRETASTATIN A4],72

# System: A549
# Experiment: Cell cycle arrest in human A549 cells assessed as accumulation at G2/M phase at 0.1 uM after 24 hrs by propidium iodide staining-based FACS flow cytometric analysis (reference value: 8.52%)
# Assay type: functional
# Settings: not given
row,SMILES,Activity [%]
1,COc1ccc(Cc2cn(C)c3c(OC)c(OC)c(OC)cc23)cc1O,80.48
2,COc1ccc(C(=O)c2cn(C)c3c(OC)c(OC)c(OC)cc23)cc1O,78.85

# System: A549
# Experiment: Cell cycle arrest in human A549 cells assessed as accumulation at S phase at 0.1 uM after 24 hrs by propidium iodide staining-based FACS flow cytometric analysis (reference value: 32.56%)
# Assay type: functional
# Settings: not given
row,SMILES,Activity [%]
1,COc1ccc(Cc2cn(C)c3c(OC)c(OC)c(OC)cc23)cc1O,14.7
2,COc1ccc(C(=O)c2cn(C)c3c(OC)c(OC)c(OC)cc23)cc1O,14.34

# System: HUVEC
# Experiment: Antiproliferative activity against activated HUVECs after 48 hrs by CCK-8 assay
# Assay type: functional, cell-based
# Settings: Homo sapiens
row,SMILES,IC50 [µM]
1,COc1cc2c(c(OC)c1OC)-c1ccc(OC)c(=O)cc1[C@@H](NC(C)=O)CC2 [COLCHICINE],0.00891
2,COc1ccc(C(=O)c2cn(C)c3c(OC)c(OC)c(OC)cc23)cc1F,0.0964
3,COc1ccc(Cc2cn(C)c3c(OC)c(OC)c(OC)cc23)cc1O,0.0089
4,COc1ccc(C(=O)c2cn(C)c3c(OC)c(OC)c(OC)cc23)cc1O,0.0253
5,COc1ccc(/C=C\c2cc(OC)c(OC)c(OC)c2)cc1O [COMBRETASTATIN A4],0.00334
6,COc1ccc(C(=O)c2c(C)n(C)c3c(OC)c(OC)c(OC)cc23)cc1O,0.0437
7,COc1ccc(Cc2c[nH]c3c(OC)c(OC)c(OC)cc23)cc1O,0.228
8,COc1ccc(C(=O)c2c[nH]c3c(OC)c(OC)c(OC)cc23)cc1O,0.327

# System: HUVEC
# Experiment: Antiproliferative activity against quesicent HUVECs after 48 hrs by CCK-8 assay
# Assay type: cell-based
# Settings: Homo sapiens
row,SMILES,IC50 [µM]
1,COc1cc2c(c(OC)c1OC)-c1ccc(OC)c(=O)cc1[C@@H](NC(C)=O)CC2 [COLCHICINE],0.0076

# Same assay, conditions: Homo sapiens, read-out: IC50
row,SMILES,IC50 [µM]
1,COc1ccc(C(=O)c2cn(C)c3c(OC)c(OC)c(OC)cc23)cc1F,0.151
2,COc1ccc(Cc2cn(C)c3c(OC)c(OC)c(OC)cc23)cc1O,6.3
3,COc1ccc(C(=O)c2cn(C)c3c(OC)c(OC)c(OC)cc23)cc1O,5.24
4,COc1ccc(/C=C\c2cc(OC)c(OC)c(OC)c2)cc1O [COMBRETASTATIN A4],0.0089
5,COc1ccc(C(=O)c2c(C)n(C)c3c(OC)c(OC)c(OC)cc23)cc1O,0.161
6,COc1ccc(Cc2c[nH]c3c(OC)c(OC)c(OC)cc23)cc1O,2.45
7,COc1ccc(C(=O)c2c[nH]c3c(OC)c(OC)c(OC)cc23)cc1O,2.98

# System: HUVEC
# Experiment: Selectivity ratio of IC50 for quesicent HUVECs to IC50 for activated HUVECs
# Assay type: functional, Homo sapiens
# Settings: not given
row,SMILES,Ratio IC50
1,COc1ccc(C(=O)c2cn(C)c3c(OC)c(OC)c(OC)cc23)cc1F,1.56
2,COc1ccc(C(=O)c2cn(C)c3c(OC)c(OC)c(OC)cc23)cc1O,207
3,COc1ccc(/C=C\c2cc(OC)c(OC)c(OC)c2)cc1O [COMBRETASTATIN A4],2.66
4,COc1ccc(C(=O)c2c(C)n(C)c3c(OC)c(OC)c(OC)cc23)cc1O,3.68
5,COc1ccc(Cc2c[nH]c3c(OC)c(OC)c(OC)cc23)cc1O,10.8
6,COc1ccc(C(=O)c2c[nH]c3c(OC)c(OC)c(OC)cc23)cc1O,9.1

# System: HUVEC
# Experiment: Antiangiogenic activity in activated HUVECs assessed as inhibition of capillary tube formation at 0.1 uM after 22 hrs by light microscopic analysis
# Assay type: functional, cell-based
# Settings: Homo sapiens
row,SMILES,inhibition
1,COc1cc2c(c(OC)c1OC)-c1ccc(OC)c(=O)cc1[C@@H](NC(C)=O)CC2 [COLCHICINE],Active
2,COc1ccc(Cc2cn(C)c3c(OC)c(OC)c(OC)cc23)cc1O,Active
3,COc1ccc(C(=O)c2cn(C)c3c(OC)c(OC)c(OC)cc23)cc1O,Active

# System: HUVEC
# Experiment: Antiangiogenic activity in quesicent HUVECs assessed as disruption of preformed capillaries at 0.1 uM after 4 hrs by light microscopic analysis (reference value: 11%)
# Assay type: cell-based
# Settings: human
row,SMILES,Activity [%]
1,COc1cc2c(c(OC)c1OC)-c1ccc(OC)c(=O)cc1[C@@H](NC(C)=O)CC2 [COLCHICINE],56
2,COc1ccc(Cc2cn(C)c3c(OC)c(OC)c(OC)cc23)cc1O,10
3,COc1ccc(C(=O)c2cn(C)c3c(OC)c(OC)c(OC)cc23)cc1O,13

# System: HUVEC
# Experiment: Antiangiogenic activity in quesicent HUVECs assessed as disruption of preformed capillaries at 1 uM after 4 hrs by light microscopic analysis relative to control
# Assay type: cell-based
# Settings: human
row,SMILES,Activity [%]
1,COc1ccc(Cc2cn(C)c3c(OC)c(OC)c(OC)cc23)cc1O,51
2,COc1ccc(C(=O)c2cn(C)c3c(OC)c(OC)c(OC)cc23)cc1O,49

# System: A549
# Experiment: Antimitotic activity in human A549 cells assessed as disruption of microtubule organization at 0.05 uM after 16 hrs by DAPI staining-based Zeiss microscopic analysis relative to control
# Assay type: functional, cell-based
# Settings: not given
row,SMILES,Activity
1,COc1ccc(C(=O)c2cn(C)c3c(OC)c(OC)c(OC)cc23)cc1O,Active

# System: A549
# Experiment: Antimitotic activity in human A549 cells assessed as disruption of microtubule organization at 0.1 uM after 16 hrs by DAPI staining-based Zeiss microscopic analysis relative to control
# Assay type: functional, cell-based
# Settings: not given
row,SMILES,Activity
1,COc1ccc(Cc2cn(C)c3c(OC)c(OC)c(OC)cc23)cc1O,Active

# System: A549
# Experiment: Antimitotic activity in human A549 cells assessed as disruption of microtubule organization at 0.01 uM after 16 hrs by DAPI staining-based Zeiss microscopic analysis relative to control
# Assay type: functional, cell-based
# Settings: not given
row,SMILES,Activity
1,COc1ccc(/C=C\c2cc(OC)c(OC)c(OC)c2)cc1O [COMBRETASTATIN A4],Active

# Molecular target: Tubulin (Homo sapiens) (UniProt P68371+Q9H4B7+P0DPH7+P68366+Q13509+Q71U36+P04350+Q3ZCM7+P07437+P68363+Q9BQE3+Q6PEY2+Q13885+Q9BVA1+Q9BUF5)
# Experiment: Inhibition of tubulin polymerization in human A549 cells at 0.1 uM after 6 hrs by Western blotting analysis
# Assay type: cell-based
# Settings: not given
row,SMILES,inhibition [%]
1,COc1ccc(Cc2cn(C)c3c(OC)c(OC)c(OC)cc23)cc1O,31
2,COc1ccc(C(=O)c2cn(C)c3c(OC)c(OC)c(OC)cc23)cc1O,27

# System: A549
# Experiment: Cell cycle arrest in human A549 cells assessed as accumulation at G1 phase at 0.1 uM after 24 hrs by propidium iodide staining-based FACS flow cytometric analysis (reference value: 53.57%)
# Assay type: functional
# Settings: not given
row,SMILES,Activity [%]
1,COc1ccc(Cc2cn(C)c3c(OC)c(OC)c(OC)cc23)cc1O,3.9
2,COc1ccc(C(=O)c2cn(C)c3c(OC)c(OC)c(OC)cc23)cc1O,5.07

# System: A549
# Experiment: Cytotoxicity against human A549 cells after 72 hrs by CCK-8 assay
# Assay type: functional, cell-based
# Settings: A549, 72 h
row,SMILES,IC50 [µM]
1,COc1cccc(C(=O)c2c[nH]c3c(OC)c(OC)c(OC)cc23)c1,> 10
2,COc1ccccc1C(=O)c1c[nH]c2c(OC)c(OC)c(OC)cc12,> 10
3,COc1ccc(C(=O)n2ccc3cc(OC)c(OC)c(OC)c32)cc1O,> 10
4,COc1cc(Cc2c[nH]c3c(OC)c(OC)c(OC)cc23)cc(OC)c1OC,> 10
5,COc1ccc(C(=O)c2cn(C)c3c(OC)c(OC)c(OC)cc23)cc1F,0.146
6,COc1ccc(C(=O)c2c[nH]c3c(OC)c(OC)c(OC)cc23)cc1I,> 10
7,COc1cc(C(=O)c2c[nH]c3c(OC)c(OC)c(OC)cc23)cc(OC)c1OC,> 10
8,COc1ccc(C(=O)c2c[nH]c3c(OC)c(OC)c(OC)cc23)cc1Cl,> 10
9,COc1ccc(C(=O)c2c[nH]c3c(OC)c(OC)c(OC)cc23)cc1,8.29
10,COc1ccc(Cc2cn(C)c3c(OC)c(OC)c(OC)cc23)cc1O,0.0717
11,COc1ccc(Cc2c[nH]c3c(OC)c(OC)c(OC)cc23)cc1F,0.387
12,COc1ccc(C(=O)c2cn(C)c3c(OC)c(OC)c(OC)cc23)cc1O,0.0283
13,COc1ccc(/C=C\c2cc(OC)c(OC)c(OC)c2)cc1O [COMBRETASTATIN A4],0.00364
14,COc1ccc(Cc2c[nH]c3c(OC)c(OC)c(OC)cc23)cc1,2.99
15,COc1ccc(C(=O)c2c(C)[nH]c3c(OC)c(OC)c(OC)cc23)cc1O,2.62
16,COc1ccc(Cn2ccc3cc(OC)c(OC)c(OC)c32)cc1O,3.19
17,COc1ccc(C(=O)c2cn(C(C)=O)c3c(OC)c(OC)c(OC)cc23)cc1,5.27
18,COc1ccc(C(=O)c2cn(S(=O)(=O)c3ccccc3)c3c(OC)c(OC)c(OC)cc23)cc1,> 10
19,COc1ccc(C(=O)c2c(C)n(C)c3c(OC)c(OC)c(OC)cc23)cc1O,0.108
20,COc1ccc(C(=O)c2c[nH]c3c(OC)c(OC)c(OC)cc23)cc1F,> 10
21,COc1ccc(Cc2cn(C)c3c(OC)c(OC)c(OC)cc23)cc1F,0.144
22,COc1ccc(Cc2c[nH]c3c(OC)c(OC)c(OC)cc23)cc1O,0.118
23,COc1ccc(C(=O)c2c[nH]c3c(OC)c(OC)c(OC)cc23)cc1O,0.166
24,COc1ccc(Cn2ccc3cc(OC)c(OC)c(OC)c32)cc1,3.09
25,COc1ccc(C(=O)n2ccc3cc(OC)c(OC)c(OC)c32)cc1,> 10
26,COc1cc2c(C(=O)c3ccc(C)cc3)c[nH]c2c(OC)c1OC,> 10
27,COc1ccc(C(=O)c2cn(C)c3c(OC)c(OC)c(OC)cc23)cc1,0.482

# System: HeLa
# Experiment: Cytotoxicity against human HeLa cells after 72 hrs by CCK-8 assay
# Assay type: functional, cell-based
# Settings: not given
row,SMILES,IC50 [µM]
1,COc1cc2c(c(OC)c1OC)-c1ccc(OC)c(=O)cc1[C@@H](NC(C)=O)CC2 [COLCHICINE],0.0374
2,COc1ccc(Cc2cn(C)c3c(OC)c(OC)c(OC)cc23)cc1O,0.0407
3,COc1ccc(C(=O)c2cn(C)c3c(OC)c(OC)c(OC)cc23)cc1O,0.125
4,COc1ccc(C(=O)c2c(C)n(C)c3c(OC)c(OC)c(OC)cc23)cc1O,0.632
5,COc1ccc(Cc2c[nH]c3c(OC)c(OC)c(OC)cc23)cc1O,0.149

# System: HT-1080
# Experiment: Cytotoxicity against human HT1080 cells after 72 hrs by CCK-8 assay
# Assay type: functional, cell-based
# Settings: HT-1080, 72 h
row,SMILES,IC50 [µM]
1,COc1cc2c(c(OC)c1OC)-c1ccc(OC)c(=O)cc1[C@@H](NC(C)=O)CC2 [COLCHICINE],0.0154
2,COc1ccc(Cc2cn(C)c3c(OC)c(OC)c(OC)cc23)cc1O,0.0422
3,COc1ccc(C(=O)c2cn(C)c3c(OC)c(OC)c(OC)cc23)cc1O,0.0263
4,COc1ccc(C(=O)c2c(C)n(C)c3c(OC)c(OC)c(OC)cc23)cc1O,0.574
5,COc1ccc(Cc2c[nH]c3c(OC)c(OC)c(OC)cc23)cc1O,0.118

# System: HepG2
# Experiment: Cytotoxicity against human HepG2 cells after 72 hrs by CCK-8 assay
# Assay type: functional, cell-based
# Settings: HepG2, 72 h
row,SMILES,IC50 [µM]
1,COc1cc2c(c(OC)c1OC)-c1ccc(OC)c(=O)cc1[C@@H](NC(C)=O)CC2 [COLCHICINE],0.0467
2,COc1ccc(Cc2cn(C)c3c(OC)c(OC)c(OC)cc23)cc1O,0.0455
3,COc1ccc(C(=O)c2cn(C)c3c(OC)c(OC)c(OC)cc23)cc1O,0.0445
4,COc1ccc(C(=O)c2c(C)n(C)c3c(OC)c(OC)c(OC)cc23)cc1O,0.0916
5,COc1ccc(Cc2c[nH]c3c(OC)c(OC)c(OC)cc23)cc1O,0.0722
